We go through 26 compounds from patent publication US7186743B2, “Substituted pyrazolyl compounds for the treatment of inflammation” (Pharmacia Corporation, priority 2001, dated 2007).

Structures are written as SMILES. Some results are limits rather than exact numbers.

The target in the first assay is T1, IKK2 (Homo sapiens, UniProt O14920).
T1 construct: made in house; host or cells: insect cells (baculovirus, pFastBac; SF9)
T1 sequence (O14920 1-756): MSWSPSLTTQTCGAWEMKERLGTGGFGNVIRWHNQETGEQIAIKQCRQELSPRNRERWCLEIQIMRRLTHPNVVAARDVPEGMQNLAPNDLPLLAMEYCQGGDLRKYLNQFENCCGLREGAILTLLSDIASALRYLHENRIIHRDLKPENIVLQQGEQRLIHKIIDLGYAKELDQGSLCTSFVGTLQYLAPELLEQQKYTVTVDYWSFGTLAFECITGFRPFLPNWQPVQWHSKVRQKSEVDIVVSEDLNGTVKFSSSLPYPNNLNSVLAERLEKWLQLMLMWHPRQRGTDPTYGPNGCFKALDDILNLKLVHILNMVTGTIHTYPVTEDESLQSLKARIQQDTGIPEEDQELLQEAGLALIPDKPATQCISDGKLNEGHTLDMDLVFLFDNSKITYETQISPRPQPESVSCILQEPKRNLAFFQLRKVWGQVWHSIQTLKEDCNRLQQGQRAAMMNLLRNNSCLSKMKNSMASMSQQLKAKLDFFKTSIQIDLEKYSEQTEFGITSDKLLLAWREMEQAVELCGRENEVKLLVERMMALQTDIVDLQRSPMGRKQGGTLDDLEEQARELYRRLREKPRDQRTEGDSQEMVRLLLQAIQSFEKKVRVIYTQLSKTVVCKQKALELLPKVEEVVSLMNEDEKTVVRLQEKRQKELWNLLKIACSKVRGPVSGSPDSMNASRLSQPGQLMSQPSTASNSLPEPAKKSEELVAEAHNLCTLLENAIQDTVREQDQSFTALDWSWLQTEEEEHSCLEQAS
Nature of the assay: IKKβ Resin Enzyme Assay (IKK2 resin). The format is biochemical. Conditions: Table 6; read-out: IKK2 Resin IC 50. In a few lines:
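Enzyme: human IKK2 with a C-terminal FLAG tag, baculovirus-expressed, purified as homodimer on anti-FLAG resin. It phosphorylates a biotinylated IκBα peptide with 1 μM ATP plus [γ-33P]ATP in 25 mM Hepes pH 7.6, Mg/Mn, for 30 min at 25° C. Incorporation is counted by scintillation after anion-exchange resin stop.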
Take `NC(=O)c1nn(-c2ccc(F)cc2)c2c1CCc1ccc(NC(=O)c3ccc(C(F)(F)F)nc3Cl)cc1-2` [Example 234, 8-({[2-chloro-6-(trifluoromethyl)pyridin-3-yl]carbonyl}amino)-1-(4-fluorophenyl)-4,5-dihydro-1H-benzo[g]indazole-3-carboxamide]: the IC50 was not above 1000 nM.

In the case of `CSc1ccc(Cl)c(C(=O)Nc2ccc3c(c2)-c2c(c(C(N)=O)nn2-c2ccc(F)cc2)CC3)c1` [Example 235, 8-{[2-chloro-5-(methylthio)benzoyl]amino}-1-(4-fluorophenyl)-4,5-dihydro-1H-benzo[g]indazole-3-carboxamide], the IC50 is not above 1000 nM.

On to `NC(=O)c1nn(-c2ccc(F)cc2)c2c1CCc1ccc(NC(=O)c3cc(N)ccc3Cl)cc1-2` [Example 236, 8-[(5-amino-2-chlorobenzoyl)amino]-1-(4-fluorophenyl)-4,5-dibydro-1H-benzo[g]indazole-3-carboxamide], for which the IC50 is not above 1000 nM. For `CN(C)c1ccc(Cl)c(C(=O)Nc2ccc3c(c2)-c2c(c(C(N)=O)nn2-c2ccc(F)cc2)CC3)c1` [Example 237, 8-{[2-chloro-5-(dimethylamino)benzoyl]amino}-1-(4-fluorophenyl)-4,5-dihydro-1H-benzo[g]indazole-3-carboxamide], the IC50 is not above 1000 nM. In the case of `NC(=O)c1nn(-c2ccc(F)cc2)c2c1CCc1ccc(NC(=O)c3cccc(Cl)c3Cl)cc1-2` [Example 238, 8-[(2,3-dichlorobenzoyl)amino]-1-(4-fluorophenyl)-4,5-dihydro-1Hbenzo[g]indazole-3-carboxamide], the IC50 was not above 1000 nM. In the case of `COc1cc(Cl)c(C(=O)Nc2ccc3c(c2)-c2c(c(C(N)=O)nn2-c2ccc(F)cc2)CC3)cc1OC` [Example 239, 8-[(2-chloro-4,5-dimethoxybenzoyl)amino]-1-(4-fluorophenyl)-4,5-dihydro-1H-benzo[g]indazole-3-carboxamide], the IC50 was not above 1000 nM. As for `Cc1ccccc1C(=O)Nc1ccc2c(c1)-c1c(c(C(N)=O)nn1-c1ccc(F)cc1)CC2` [Example 240, 1-(4-fluorophenyl)-8-[(2-methylbenzoyl)amino]-4,5-benzo[g]indazole-3-dihydro-1H-carboxamide], the IC50 is not above 1000 nM. As for `NC(=O)c1nn(-c2ccc(F)cc2)c2c1CCc1ccc(NC(=O)c3cccc([N+](=O)[O-])c3Cl)cc1-2` [Example 241, 8-[(2-chloro-3-nitrobenzoyl)amino]-1-(4-fluorophenyl)-4,5-dihydro-1H-benzo[g]indazole-3-carboxamide], the IC50 was not above 1000 nM.

Staying with this assay, now noted: Table 7; read-out: IKK2 Resin IC50.
Consider `NC(=O)c1nn(-c2ccc(F)cc2)c2c1CCc1ccc(NC(=O)c3cc(N4CCNCC4)ncc3Cl)cc1-2` [Example 253, 8-[(5-chloro-2-piperazin-1-ylisonicotinoyl)amino]-1-(4-fluorophenyl)-4,5-dihydro-1H-benzo[g]indazole-3-carboxamide], for which the IC50 was not above 1000 nM. Turning to `CN1CCN(c2ccc(Cl)c(C(=O)Nc3ccc4c(c3)-c3c(c(C(N)=O)nn3-c3ccc(F)cc3)CC4)n2)CC1` [Example 256, 8-({[3-chloro-6-(4-methylpiperazin-1-yl)pyridin-2-yl]carbonyl}amino)-1-(4-fluorophenyl)-4,5-dihydro-1H-benzo[g]indazole-3-carboxamide], the IC50 was not above 1000 nM. The same measure, in the same setting: in the case of `CN(C)CCSc1ccc(Cl)c(C(=O)Nc2ccc3c(c2)-c2c(c(C(N)=O)nn2-c2ccc(F)cc2)CC3)n1` [Example 257, 8-{[(3-chloro-6-{[2-(dimethylamino)ethyl]thio}pyridin-2-yl)carbonyl]amino}-1-(4-fluorophenyl)-4,5-dihydro-1H-benzo[g]indazole-3-carboxamide] it was not above 1000 nM; in that of `CN1CCN(c2ccc(Cl)c(C(=O)Nc3ccc4c(c3)-c3c(c(C(N)=O)nn3-c3ccc(F)cc3)CC4)c2)CC1` [Example 258, 8-{[2-chloro-5-(4-methylpiperazin-1-yI)benzoyl]amino}-1-(4-fluorophenyl)-4,5-dihydro-1H-benzo[g]indazole-3-carboxamide], not above 1000 nM.

The same assay, now with this note: Table 8; read-out: IKK2 Resin IC50.
Turning to `NC(=O)c1nn(-c2ccc(OCc3ccccc3)cc2)c2c1CCc1ccc(NC(=O)c3ccccc3Cl)cc1-2` [Example 259, 1-[4-(benzyloxy)phenyl]-8-[(2-chlorobenzoyl)amino]-4,5-dihydro-1H-benzo[g]indazole-3-carboxamide], the IC50 was more than 10000 nM. For `NC(=O)c1nn(-c2ccc(O)cc2)c2c1CCc1ccc(NC(=O)c3ccccc3Cl)cc1-2` [Example 261, 8-[(2-chlorobenzoyl)amino]-1-(4-hydroxyphenyl)-4,5-dihydro-1H-benzo[g]indazole-3-carboxamide], the IC50 was not above 1000 nM. Turning to `NC(=O)c1nn(-c2cccc(O)c2)c2c1CCc1ccc(NC(=O)c3ccccc3Cl)cc1-2` [Example 262, 8-[(2-chlorobenzoyl)amino]-1-(3-hydroxyphenyl)-4,5-dihydro-1H-benzo[g]indazole-3-carboxamide], the IC50 was not above 1000 nM.

Regarding `NC(=O)c1nn(-c2ccc(O)cc2)c2c1CCc1ccc(NC(=O)c3cccnc3Cl)cc1-2` [Example 263, 8-{[(2-chloropyridin-3-yl)carbonyl]amino}-1-(4-hydroxyphenyl)-4,5-dihydro-1H-benzo[g]indazole-3-carboxamide], the IC50 was not above 1000 nM.

Staying with this assay, now noted: Table 9; read-out: IKK2 Resin IC50.
For the compound `NC(=O)c1nn(-c2ccc(OCCN3CCOCC3)cc2)c2c1CCc1ccc(NC(=O)c3ccccc3Cl)cc1-2` [Example 264, 8-[(2-chlorobenzoyl)amino]-1-[4-(2-morpholin-4-ylethoxy)phenyl]-4,5-dihydro-1H-benzo[g]indazole-3-carboxamide], the IC50 is not above 1000 nM. Turning to `CC1(C)OCC(COc2cccc(-n3nc(C(N)=O)c4c3-c3cc(NC(=O)c5ccncc5Cl)ccc3CC4)c2)O1` (centres unmarked) [Example 275, 8-[(3-chloroisonicotinoyl)amino]-1-{3-[(2,2-dimethyl-1,3-dioxolan-4-yl)methoxy]phenyl}-4,5-dihydro-1H-benzo[g]indazole-3-carboxamide], the IC50 lay in the range of 1000 to 10000 nM.

Staying with this assay, now noted: Table 10; read-out: IKK2 Resin IC50.
As to `NC(=O)c1nn(-c2cccc(O)c2)c2c1CCc1ccc(NC(=O)c3cc4c(cc3Cl)OCO4)cc1-2` [Example 277, 8-{[(6-chloro-1,3-benzodioxol-5-yl)carbonyl]amino}-1-(3-hydroxyphenyl)-4,5-dihydro-1H-benzo[g]indazole-3-carboxamide], the IC50 was not above 1000 nM.

With `NC(=O)c1nn(-c2ccc(O)cc2)c2c1CCc1ccc(NC(=O)c3cc(N)ccc3Cl)cc1-2` [Example 280, 8-[(5-amino-2-chlorobenzoyl)amino]-1-(4-hydroxyphenyl)-4,5-dihydro-1H-benzo[g]indazole-3-carboxamide], the IC50 is not above 1000 nM. On the same count and under the same terms, in the case of `NC(=O)c1nn(-c2cccc(O)c2)c2c1CCc1ccc(NC(=O)c3ccncc3Cl)cc1-2` [Example 281, 8-[(3-chloroisonicotnoyl)amino]-1-(3-hydroxyphenyl)-4,5-dihydro-1H-benzo[g]indazole-3-carboxamide] it was not above 1000 nM; in that of `COc1ccc(C(=O)Nc2ccc3c(c2)-c2c(c(C(N)=O)nn2-c2cccc(O)c2)CC3)c(Cl)c1` [Example 283, 8-[(2-chloro-4-methoxybenzoyl)ammo]-1-(3-hydroxyphenyl)-4,5-dihydro-1H-benzo[g]indazole-3-carboxamide], not above 1000 nM; in that of `NC(=O)c1nn(-c2cccc(O)c2)c2c1CCc1ccc(NC(=O)c3cccnc3Cl)cc1-2` [Example 284, 8-{[(2-chloropyridin-3-yl)carbonyl]amino}-1-(3-hydroxyphenyl)-4,5-dihydro-1H-benzo[g]indazole-3-carboxamide], not above 1000 nM. On to `COc1ccc(C(=O)Nc2ccc3c(c2)-c2c(c(C(N)=O)nn2-c2cccc(O)c2)CC3)c(Cl)c1OC` [Example 286, 8-[(2-chloro-3,4-dimethoxybenzoyl)amino]-1-(3-hydroxyphenyl)-4,5-dihydro-1H-benzo[g]indazole-3-carboxamide], for which the IC50 was not above 1000 nM. Take `Cc1ccnc(Cl)c1C(=O)Nc1ccc2c(c1)-c1c(c(C(N)=O)nn1-c1cccc(O)c1)CC2` [Example 287, 8-{[(2-chloro-4-methylpyridin-3-yl)carbonyl]amino}-1-(3-hydroxyphenyl)-4,5-dihydro-1H-benzo[g]indazole-3-carboxamide]: the IC50 was not above 1000 nM.

Staying with this assay, now noted: read-out: IKK-2 resin IC50.
For `NC(=O)c1nn(-c2ccc(N3CCOCC3)cc2)c2c1CCc1ccc(NC(=O)c3cccnc3Cl)cc1-2` [Example 288, 8-{[(2-chloropyridin-3-yl)carbonyl]amino}-1-(4-morpholin-4-ylphenyl)-4,5-dihydro-1H-benzo[g]indazole-3-carboxamide], the IC50 is 1000 to 10000 nM.
